From patent US20250332212A1, “METHOD FOR TREATING OR PREVENTING ALOPECIA” (Suzhou Mingren Pharmaceutical Biotechnology Co., Ltd., priority 2024, published 2025)
Square brackets hold non-standard residues; d marks the D form. Ends that are not written are not given here. pS = N[C@@H](COP(=O)(O)O)C(=O)O

Tests used:
Wnt10a = Wnt10a expression in skin tissue (qPCR, Western blotting); assay type: in vivo, mouse
Procedure: To illustrate the regulation of JP1 on the upstream Wnt ligand of β-catenin, this example intersected classical signaling pathway-related Wnt ligands and AGA-related Wnt ligands, and screened out the related Wnt ligands, including Wnt1, Wnt3a, Wnt7b, Wnt10a, and Wnt10b. In this example, qPCR was used to detect the mRNA expression of these Wnt molecules in the skin tissue of the mouse model in Example 6.
(§1) 4.1) Protein extraction: 70 mg of skin tissue was placed in a 1.5 mL centrifuge tube, and 500 μL of tissue lysate RIPA containing protease inhibitor and phosphatase inhibitor was added. The tissue was placed on an ice box, pulverized by a tissue grinder, and then ultrasonically crushed to obtain a tissue suspension, which was then placed in a rotary windmill at 4° C. to be lysed for 2 h. The centrifuge was set at 12,000×g, 4° C., centrifuged for 15 min, and the supernatant was collected as the total protein.
5.1) Heating of protein samples: the total protein content of each tissue was 50 μg; calculate the volume of a corresponding protein sample, make up the volume with saline to 16 μL, then add 4 μL of 5×SDS sampling buffer, heat at 100° C. for 5 min, and then cool at room temperature and store at −20° C. […]
(§2) 7.3) Relative mRNA expression levels of genes were calculated by the […] relative quantification method using GAPDH as an internal reference.

Lef1 = test: qPCR of Lef1 mRNA in skin tissue; assay type: in vivo, mouse
Procedure: 6.1) Sample preparation: 15-20 mg of mouse skin tissue was placed in a 1.5 mL centrifuge tube, and 600 μL of pre-cooled lysate was quickly added, and homogenized with an electric homogenizer. The homogenate obtained was blown gently 10 times, left at room temperature for 3-5 min, then centrifuged at 14,000×g for 5 min, and the supernatant was transferred to a new centrifuge tube with a pipette gun of suitable volume.
(§3) 7.1) Dilute the specific gene amplification primers to 10 µM in ddH2O, prepare the qPCR reaction system according to the instructions in the kit and add them sequentially into a 384-well plate.
as §2

[1] = test system: TP-induced AGA model mice; test: TP-induced AGA model, Animal model II (JP1 topical, dose-effect); assay type: in vivo, C57BL/6J male mice; conditions: for hair coverage on the 18th day: twice a day
Procedure: To prolong the action time of JP1, the design scheme of the animal model in this example adjusted the once-a-day of the first model to twice-a-day administration with an interval of 6 h (FIG. 6A). For details of the experiments, please refer to “Animal model II” of “1. TP-induced AGA model” in “Experimental Methods” below.
The mice used in this study were 5-week-old C57BL/6J male mice (18-20 g), which were purchased from Jiangsu Jicui Pharmachem Biotechnology Co. All the animals used in the experiments were housed in the SPF-level environment of the Medical Laboratory Animal Center of Nanjing Medical University, and the relevant animal experimental operations were approved by the Animal Ethics Committee of Nanjing Medical University. The control group was left untreated, and the other groups were injected with TP subcutaneously on their backs every day. Two weeks later, the hair on the backs of the mice was shaved with an electric razor, covering an area of 2 cm×4 cm, and then the residual hair was removed with a hair removal cream. The subcutaneous injections of TP on the shaved backs of the mice in the AGA model was continued until the end of the experimental period, and the administration of TP in each of the treatment groups was begun on the 1st day of the dehairing process.
In addition to the normal control group (denoted as control) n=20, all mice injected subcutaneously with TP were randomly divided into the following groups (n=20): the model group (denoted as model), the 0.1% JP1, the 0.5% JP1, the 1% JP1 (all administered by topical dermal application), and the 5% minoxidil group.
Mice were weighed every two days during the experiment. Skin color was assessed against skin score charts. The mice were euthanized and treated at the end of the experiment, and skin tissues were taken from the dorsal decorticated area of the mice. Some of the tissues were fixed with 4% paraformaldehyde solution and then paraffin sections were made for H&E or immunofluorescence staining, etc., and some of the tissues were stored in the refrigerator at −80° C. for relevant molecular expression assays (qRT-PCR, Western Blot, IP, etc.).
8.1) Sampling and fixation: After the experiment, skin tissue was taken from the depilated area on the back of the mouse and placed in a 10 mL EP tube. 4% paraformaldehyde was added to the EP tube, and all tissues were immersed to denature and coagulate the proteins of the skin tissue. The original morphology and structure of the cells were maintained.
8.6) H&E staining: the sections pretreated in distilled water were put into aqueous hematoxylin solution for a few minutes for staining. The color was separated in acid water and ammonia for a few seconds each. After rinsing in running water for 1 h, the sections were placed in distilled water for a few moments. The sections were dehydrated in 70% and 90% alcohol for 10 min each, and stained in alcoholic eosin stain for 2-3 min.

SP1 = SP1 expression in skin tissue (qPCR, immunoblotting, immunofluorescence); assay type: in vivo, mouse
Procedure: as §1
(§4) 5.1) Heating of protein samples: the total protein content of each tissue was 50 μg; calculate the volume of a corresponding protein sample, make up the volume with saline to 16 μL, then add 4 μL of 5×SDS sampling buffer, heat at 100° C. for 5 min, and then cool at room temperature and store at −20° C.
as §3, §2
9.5) Primary antibody incubation: the tissue was circled by the histochemical pen, about 50 μL of primary antibody was added dropwise to the tissue, and incubated in a wet box overnight at 4° C., washed 3 times with PBS.

p-MEK = test: Immunoblotting of p-MEK in skin tissue; assay type: in vivo, mouse; conditions: P<0.05, dose-effect relationship
Procedure: as §1, §4
(§5) 5.7) Primary antibody incubation: the cut protein bands were placed into the corresponding primary antibody and incubated at 4° C. on a shaker overnight, washed with TBST 3 times for 10 min/time.

p-ERK = test: Immunoblotting of p-ERK in skin tissue; assay type: in vivo, mouse; conditions: P<0.05, dose-effect relationship
Procedure: as §1, §4, §5

[2] = JP1 stability experiment in skin-coating solvent (HPLC); assay type: physicochemical; conditions: 14 days
Procedure: This example further explored the stability of JP1 in the skin-coating solvent. In this example, the solvent group and JP1 group were designed, and the content and molecular weight of JP1 in the skin-coating solvent were detected using high performance liquid chromatography on days 1, 3, 7, and 14, respectively, after the solution was formulated for evaluation. The prepared solutions were placed in a refrigerator at 4° C. The details of the experiments are shown in “II. JP1 Stability Experiments” of “Experimental Methods” below.
The stability of JP1 dissolved in a skin-coating solvent was tested at different time points. JP1 was prepared with the skin-coating solvent, and a solvent control group and a 10 mM JP1 group were set up. The prepared solution was stored in a refrigerator at 4° C. The five time points of 0, 1, 3, 7 and 14 days were detected by high performance liquid chromatography (HPLC), and the standard curve was plotted with the peak area as the vertical coordinate and the concentration of JP1 as the horizontal coordinate.

FPGSDRF-RGD (FPG[pS]DRFRGD) [JP1, amino acid S is phosphorylated; JWA peptide]
Wnt10a protein expression (Wnt10a; Western blotting, dose-dependent): significantly up-regulated
Wnt10a mRNA expression (Wnt10a; qPCR, P<0.05): elevated with a dose-effect relationship
Lef1 mRNA expression vs model group (Lef1): increased
hair coverage on the 18th day ([1]; 0.1% JP1 topical): lowest
hair bulb size on day 11 among groups ([1]; 1% JP1 group): largest
hair coverage on the 18th day ([1]; 1% JP1 topical): highest hair coverage
hair follicle phase on day 11 ([1]; H&E longitudinal, model group just entered the anagen phase): mid-growth phase
total number of hair follicles vs model group ([1]; H&E transverse sections, day 11): increased significantly and dose-dependently
effect on growth cycle of hair follicles ([1]; JP1 or minoxidil intervention): accelerate the entry of hair follicles into the anagen phase and shorten the resting phase
diameter of the hair bulb vs model group ([1]; day 11): significantly larger than that of the model group
difference between body weights of the groups ([1]; during the experiment): no statistically significant difference
hair follicle phase on day 32 ([1]; medium and high dose JP1 group, model group entered the resting phase): entered the anagen phase again
dose-effect relationship of AGA hair follicle regeneration ([1]; skin-coating 0.1%, 0.5%, 1% JP1): significant dose-effect relationship
skin color on the 11th day ([1]; topical, model group appeared orange): changed to gray
SP1 immunofluorescence (SP1): consistent with the protein immunoblotting results
SP1 protein expression level (SP1; immunoblotting): elevated trend
SP1 mRNA expression (SP1; qPCR): high expression
SP1 mRNA expression level, 1% JP1 group vs 0.1% JP1 group (SP1; qPCR, P<0.05): significantly higher than that in the 0.1% JP1 group
p-MEK expression level (p-MEK): elevated
p-ERK expression level (p-ERK): elevated
JP1 degradation in skin-coating solvent ([2]; 10 mM JP1, 4° C.): no JP1 degradation was detected
peak area of the substance produced by degradation ([2]; skin-coating solvent, 4° C.): less than 0.5 mAU
percentage of the main peak area ([2]; skin-coating solvent, 4° C.): ~100%
